Assay results reported in patent publication US10314917B2, “Targeted polymeric inflammation-resolving nanoparticles” (The Brigham and Women's Hospital, Inc., priority 2014, dated 2019).
Where no end group is shown, it is not given here.

Key:
[1] = tested on: liver macrophage infiltration; details: during dietary intervention; P<0.01; cited from earlier work
[2] = tested on: MCP-1 and TNFα; assay: MCP-1 and TNFα production in LPS-activated peritoneal macrophages (ELISA); format: cell-based, murine; details: equivalent dose of GW3965
Protocol: Experiments were conducted to assess the in vitro anti-inflammatory effects of GW3965-containing NPs and their ability to regulate LXR target gene expression such as ABCA1 and SREBP-1c. LPS-activated peritoneal macrophages were treated with the indicated NPs containing equivalent doses of GW3965. The supernatant was collected for ELISA analysis of MCP-1 and TNFα. The cells were collected for RT-qPCR analysis of MCP-1 and TNFα mRNA as described below.
In the next set of experiments, GW3965-containing NPs were evaluated to see if they are able to exert anti-inflammatory effects on macrophages. Isolated murine peritoneal macrophages were first treated with lipopolysaccharide (LPS) to induce the production of pro-inflammatory factors such as MCP-1 and TNFα. The activated macrophages were then treated with an equivalent dose of GW3965 in either solution or NP form. ELISA assay was performed on the culture supernatant to determine the production of MCP-1 and TNFα.

[3] = tested on: atherosclerotic lesion area; assay: Atheroprotective effect in plaque-bearing LDLr−/− mice (lesion area, Oil Red O); format: in vivo; details: 8 mg/kg GW3965 daily i.v. for 14 days
Protocol: To explore the atheroprotective effects of these NPs, plaque-bearing LDLr−/− mice were randomly divided into five groups and treated with the following regimens with equivalent doses of 8 mg/kg entrapped GW3965 via daily intravenous administration for 14 consecutive days: i) empty PLGA-b-PEG NP without GW3965 (control); ii) GW3965 in solution form; iii) CNP; iv) TNPLyP-1; and v) TNPCREKA. The aim of this study was to determine whether GW3965-containing NPs would result in inhibition of atherosclerosis development and whether peptide conjugation would improve the delivery efficacy of GW3965.

[4] = tested on: zymosan-stimulated PMN infiltration; assay: In vivo murine zymosan-induced peritonitis; design: species or system C57BL/6J mice; details: 100 ng/mouse i.v.; exudates 4 h post zymosan
Protocol: A model of self-limited peritonitis was used to quantitatively assess resolution in vivo to determine whether the developed NPs containing Ac2-26 are anti-inflammatory and/or pro-resolving (Bannenberg 2005; Schwab 2007). Zymosan A was administered to C57BL/6J mice. In parallel, mice were then given vehicle, empty NPs as control, Ac2-26 in NPs, Scrm Ac2-26 in NPs, Ac2-26 native peptides described in detail below. Equal polymer concentration was loaded in both the NPs and Ac2-26 NPs.
1 ml of zymosan A (100 μg/mouse) in 1 ml of sterile saline was administered to female C57BL/6J mice (6-8 wk old, Charles River Laboratories, Wilmington, Mass., USA) to induce peritonitis (Bannenberg et al. J Immunol 174(7):4345-4355 (2005); Norling, et al. (2011) J Immunol 186(10):5543-5547). […]
For baseline PMN number measurements, mice were euthanized at selected time intervals (4, 12, or 24 hours post zymosan stimulation), with an overdose of isofluorane, following which peritoneal exudates were collected by lavaging with Ca^2+/Mg^2+ free phosphate buffered saline (PBS^−/−, 5 ml). Leukocytes were counted with a hemocytometer.
Peritoneal exudates were harvested 4 h post zymosan initiation, and living cells were quantified using trypan blue exclusion.
Differential cell counts were assessed via flow cytometry using an LSRII flow cytometer. […]

## CC/C=C\C[C@H](O)/C=C/C=C\C=C\C=C\[C@@H](O)[C@@H](O)C/C=C\CCC(=O)O [RvD1]
[1]
  liver macrophage infiltration (change): −15%

## O=C(O)Cc1cccc(OCCCN(Cc2cccc(C(F)(F)F)c2Cl)CC(c2ccccc2)c2ccccc2)c1 [GW3965, 3-(3-(2-chloro-3-trifluoromethylbenzyl-2,2diphenylethylamino)proproxy), phenylacetic acid]
[2]
  production of MCP-1 and TNFα proteins: substantially suppressed
[3]
  reduction in lesion area compared with controls: pronounced reduction

## Ac2-26 peptide: annexin A1 N-terminal mimetic peptide that acts on the formyl peptide receptor ALX/FPR2 (Ac-AMVSEFLKQAWFIENEEQEYVQTVK; UniProt P04083 2-26, looked up, fragment)
[4]
  blockade of zymosan-stimulated PMN infiltration: approximately 30%
